Data as given in ChEMBL document CHEMBL3217457, “Carbazolepyrrolo[2,1-c][1,4]benzodiazepine conjugates: design, synthesis, and biological evaluation” (Medchemcomm, 2011).

Assays:
MCF7 [1] = test: Cell cycle arrest in human MCF7 cells assessed as accumulation at G0 phase at 4 uM after 24 hrs by propidium iodide staining based flow cytometry (reference value: 2.77%); assay type: functional
[2] = Growth inhibition of human OVCAR4 cells; assay type: functional; conditions: OVCAR-4
[3] = Growth inhibition of human BT549 cells; assay type: functional; conditions: BT-549
PC-3 = test: Growth inhibition of human PC3 cells; assay type: functional
SiHa = test: Growth inhibition of human SiHa cells; assay type: functional
IGROV-1 = test: Growth inhibition of human IGROV1 cells; assay type: functional
A498 = test: Growth inhibition of human A498 cells; assay type: functional
SN12C = test: Growth inhibition of human SN12C cells; assay type: functional
A2780 = test: Growth inhibition of human A2780 cells; assay type: functional
SK-MEL-2 = test: Growth inhibition of human SK-MEL-2 cells; assay type: functional
[4] = Growth inhibition of human UACC62 cells; assay type: functional; conditions: UACC-62
MCF7 [5] = test: Cell cycle arrest in human MCF7 cells assessed as accumulation at G1 phase at 4 uM after 24 hrs by propidium iodide staining based flow cytometry (reference value: 57.98%); assay type: functional
KM12 = test: Growth inhibition of human KM12 cells; assay type: functional
[6] = Growth inhibition of human Gurav cells; assay type: functional
[7] = Growth inhibition of human HCC2998 cells; assay type: functional; conditions: HCC 2998
MDA-MB-468 = test: Growth inhibition of human MDA-MB-468 cells; assay type: functional
A549 [8] = test: Growth inhibition of human A549 cells; assay type: functional
[9] = Growth inhibition of human MOLT4 cells; assay type: functional; conditions: MOLT-4
NCI-H322M = test: Growth inhibition of human NCI-H322M cells; assay type: functional
[10] = Growth inhibition of human RXF393 cells; assay type: functional; conditions: RXF 393
NCI-H23 = test: Growth inhibition of human NCI-H23 cells; assay type: functional
SW-620 = test: Growth inhibition of human SW620 cells; assay type: functional
RPMI-8226 = test: Growth inhibition of human RPMI8226 cells; assay type: functional
DU-145 = test: Growth inhibition of human DU145 cells; assay type: functional
CAKI-1 = test: Growth inhibition of human CAKI-1 cells; assay type: functional
[11] = Growth inhibition of human OVCAR8 cells; assay type: functional; conditions: OVCAR-8
KB = test: Growth inhibition of human KB cells; assay type: functional
MCF7 [12] = test: Cell cycle arrest in human MCF7 cells assessed as accumulation at G2/M phase at 4 uM after 24 hrs by propidium iodide staining based flow cytometry (reference value: 24.95%); assay type: functional
NCI-H226 = test: Growth inhibition of human NCI-H226 cells; assay type: functional
[13] = Growth inhibition of human UACC257 cells; assay type: functional; conditions: UACC-257
HL-60(TB) = test: Growth inhibition of human HL-60(TB) cells; assay type: functional
[14] = Growth inhibition of human MDA-MB cells; assay type: functional
SK-MEL-5 = test: Growth inhibition of human SK-MEL-5 cells; assay type: functional
HT-29 = test: Growth inhibition of human HT-29 cells; assay type: functional
TK-10 = test: Growth inhibition of human TK10 cells; assay type: functional
ACHN = test: Growth inhibition of human ACHN cells; assay type: functional
SF-268 = test: Growth inhibition of human SF268 cells; assay type: functional
[15] = Growth inhibition of human HOP92 cells; assay type: functional; conditions: HOP-92
NCI-H522 = test: Growth inhibition of human NCI-H522 cells; assay type: functional
[16] = Growth inhibition of human OVCAR3 cells; assay type: functional; conditions: OVCAR-3
A549 [17] = test: Growth inhibition of human A549/ATCC cells; assay type: functional
U-251 = test: Growth inhibition of human U251 cells; assay type: functional
HCT-116 = test: Growth inhibition of human HCT116 cells; assay type: functional
[18] = Growth inhibition of human SF539 cells; assay type: functional; conditions: SF-539
HOP-62 = test: Growth inhibition of human HOP62 cells; assay type: functional
[19] = Growth inhibition of human OVCAR5 cells; assay type: functional; conditions: OVCAR-5
MCF7 [20] = test: Cell cycle arrest in human MCF7 cells assessed as accumulation at S phase at 4 uM after 24 hrs by propidium iodide staining based flow cytometry (reference value: 14.30%); assay type: functional
SR = test: Growth inhibition of human SR cells; assay type: functional
[21] = Growth inhibition of human EKVX cells; assay type: functional
SK-MEL-28 = test: Growth inhibition of human SK-MEL-28 cells; assay type: functional
COLO 205 = test: Growth inhibition of human COLO205 cells; assay type: functional
[22] = Growth inhibition of human LOXIMVI cells; assay type: functional; conditions: LOX IMVI
MCF7 [23] = test: Cell cycle arrest in human MCF7 cells assessed as accumulation at G0/G1 phase at 4 uM after 24 hrs by propidium iodide staining based flow cytometry (reference value: 60.75%); assay type: functional
MCF7 [24] = test: Growth inhibition of human MCF7 cells; assay type: functional
SNB-19 = test: Growth inhibition of human SNB19 cells; assay type: functional
[25] = Growth inhibition of human Hs 578T cells; assay type: functional
Malme-3M = test: Growth inhibition of human MALME-3M cells; assay type: functional
K562 = test: Growth inhibition of human K562 cells; assay type: functional
T47D = test: Growth inhibition of human T47D cells; assay type: functional
M14 = test: Growth inhibition of human M14 cells; assay type: functional
786-0 = test: Growth inhibition of human 786-0 cells; assay type: functional
Calf thymus DNA = test: Binding affinity to calf thymus DNA assessed as change in melting temperature at compound to DNA ratio of 1:5 after 18 hrs by thermal denaturation analysis; assay type: nucleic-acid assay; conditions: Bos taurus
CCRF-CEM = test: Growth inhibition of human CCRF-CEM cells; assay type: functional
ZR-75-1 = test: Growth inhibition of human ZR-75-1 cells; assay type: functional
[26] = Growth inhibition of human UO31 cells; assay type: functional; conditions: UO-31
MDA-MB-435 = test: Growth inhibition of human MDA-MB-435 cells; assay type: functional
NCI-H460 = test: Growth inhibition of human NCI-H460 cells; assay type: functional
[27] = Growth inhibition of human HCT15 cells; assay type: functional; conditions: HCT-15
SNB-75 = test: Growth inhibition of human SNB75 cells; assay type: functional
SK-OV-3 = test: Growth inhibition of human SKOV3 cells; assay type: functional

COc1cc2c(cc1OCCCCCn1c3ccccc3c3ccccc31)N=C[C@@H]1CCCN1C2=O
Activity (MCF7 [1]): 3.45% | GI50 [2]: 3090 nM | GI50 [3]: 2030 nM | GI50 (PC-3): 2300 nM | GI50 (SiHa): 1680 nM | GI50 (IGROV-1): 2080 nM | GI50 (A498): 1740 nM | GI50 (SN12C): 1940 nM | GI50 (A2780): 1320 nM | GI50 (SK-MEL-2): 1670 nM | GI50 [4]: 1860 nM | Activity (MCF7 [5]): 68.24% | GI50 (KM12): 1960 nM | GI50 [6]: 1610 nM | GI50 [7]: 1710 nM | GI50 (MDA-MB-468): 2260 nM | GI50 (A549 [8]): 1420 nM | GI50 [9]: 2150 nM | GI50 (NCI-H322M): 3830 nM | GI50 [10]: 4340 nM | GI50 (NCI-H23): 2690 nM | GI50 (SW-620): 1850 nM | GI50 (RPMI-8226): 1720 nM | GI50 (DU-145): 2230 nM | GI50 (CAKI-1): 1930 nM | GI50 [11]: 2550 nM | GI50 (KB): 1800 nM | Activity (MCF7 [12]): 15.38% | GI50 (NCI-H226): 2490 nM | GI50 [13]: 2290 nM | GI50 (HL-60(TB)): 1720 nM | GI50 [14]: 2140 nM | GI50 (SK-MEL-5): 1730 nM | GI50 (HT-29): 2080 nM | GI50 (TK-10): 2250 nM | GI50 (ACHN): 1770 nM | GI50 (SF-268): 1910 nM | GI50 [15]: 1310 nM | GI50 (NCI-H522): 1650 nM | GI50 [16]: 1880 nM | GI50 (A549 [17]): 1570 nM | GI50 (U-251): 1590 nM | GI50 (HCT-116): 1650 nM | GI50 [18]: 1850 nM | GI50 (HOP-62): 1800 nM | GI50 [19]: 2420 nM | Activity (MCF7 [20]): 13.03% | GI50 (SR): 1540 nM | GI50 [21]: 5270 nM | GI50 (SK-MEL-28): 1800 nM | GI50 (COLO 205): 1640 nM | GI50 [22]: 2080 nM | Activity (MCF7 [23]): 71.69% | GI50 (MCF7 [24]): 1640 nM | GI50 (SNB-19): 2050 nM | GI50 [25]: 1970 nM | GI50 (Malme-3M): 2200 nM | GI50 (K562): 2600 nM | GI50 (T47D): 2790 nM | GI50 (M14): 2100 nM | GI50 (786-0): 1730 nM | ΔTm (Calf thymus DNA): 4.9 °C | GI50 (CCRF-CEM): 1970 nM | GI50 (ZR-75-1): 1760 nM | GI50 [26]: 1520 nM | GI50 (MDA-MB-435): 1730 nM | GI50 (NCI-H460): 1960 nM | GI50 [27]: 1670 nM | GI50 (SNB-75): 1050 nM | GI50 (SK-OV-3): 4570 nM
